# Read-outs that look alike come from different tables or passages of the source.
# Assays:
# Assay type in all cases: in vivo
# [1] = system: Italian ryegrass (Lolium multiflorum); experiment: Test E pre-/postemergence plant response; settings: scale 0 to 100, read-out: Plant response rating, Ryegrass, Italian; for pest or weed control at 16 g/ha: 16 g ai/ha; for pest or weed control at 31 g/ha: 31 g ai/ha; for pest or weed control at 62 g/ha: 62 g ai/ha; for pest or weed control at 125 g/ha: 125 g ai/ha
# Description: (§1) Seeds of plant species selected from bluegrass (annual bluegrass, Poa annua), blackgrass (Alopecurus myosuroides), canarygrass (Phalaris minor), chickweed (common chickweed, Stellaria media), galium (catchweed bedstraw, Galium aparine), downy bromegrass (Bromus tectorum), field poppy (Papaver rhoeas), field violet (Viola arvensis), green foxtail (Setaria viridis), deadnettle (henbit deadnettle, Lamium amplexicaule), Italian ryegrass (Lolium multiflorum), kochia (Kochia scoparia), lambsquarters (Chenopodium album), oilseed rape (Brassica napus), pigweed (Amaranthus retroflexus), Russian thistle (Salsola iberica), chamomile (scentless chamomile, Matricaria inodora), speedwell (bird's-eye speedwell, Veronica persica), spring barley (Hordeum vulgare), spring wheat (Triticum aestivum), wild buckwheat (Polygonum convolvulus), wild mustard (Sinapis arvensis), wild oat (Avena fatua), wild radish (Raphanus raphanistrum), windgrass (Apera spica-venti), winter barley (Hordeum vulgare), and winter wheat (Triticum aestivum) were planted into a silt loam soil and treated preemergence with test chemicals formulated in a non-phytotoxic solvent mixture which included a surfactant. At the same time, these species were planted in pots containing Redi-Earth® planting medium (Scotts Company, 14111 Scottslawn Road, Marysville, Ohio 43041) comprising spaghnum peat moss, vermiculite, wetting agent and starter nutrients and treated with postemergence applications of the test chemicals formulated in the same manner. Plants ranged in height from 2 to 18 cm (1- to 4-leaf stage).
# (§2) Treated plants and controls were maintained in a controlled growth environment for 7 to 21 days after which time all species were compared to controls and visually evaluated. Plant response ratings, summarized in Table E, are based on a scale of 0 to 100 where 0 is no effect and 100 is complete control. A dash (-) response means no test result.
# [2] = system: green foxtail (Setaria viridis); experiment: Test E pre-/postemergence plant response; settings: scale 0 to 100, read-out: Plant response rating, Foxtail, Green; for pest or weed control at 31 g/ha: 31 g ai/ha; for pest or weed control at 62 g/ha: 62 g ai/ha; for pest or weed control at 125 g/ha: 125 g ai/ha
# Description: as §1, §2
# [3] = system: Italian ryegrass (Lolium multiflorum); experiment: Test F pre-/postemergence plant response; settings: Lolium multiflorum, scale 0 to 100, read-out: Plant response rating, Ryegrass, Italian; for pest or weed control at 16 g/ha: 16 g ai/ha; for pest or weed control at 31 g/ha: 31 g ai/ha; for pest or weed control at 125 g/ha: 125 g ai/ha
# Summary of the method: (§3)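 Plant response is a visual score from 0, meaning no effect, to 100, meaning complete control, assigned by comparison with untreated plants. Ratings were made 14 to 21 days after preemergence application to seeded silt loam or postemergence application to plants at the 1- to 4-leaf stage.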
# [4] = system: field bindweed (Convolvulus arvensis); experiment: Test F pre-/postemergence plant response; settings: Convolvulus arvensis, scale 0 to 100, read-out: Plant response rating, Field Bindweed
# Summary of the method: as §3
# [5] = system: goosegrass (Eleusine indica); experiment: Test F pre-/postemergence plant response; settings: Eleusine indica, pre-emergence, scale 0 to 100, read-out: Plant response rating, Goosegrass
# Summary of the method: as §3
# [6] = system: hairy beggarticks (Bidens pilosa); experiment: Test F pre-/postemergence plant response; settings: Bidens pilosa, scale 0 to 100, read-out: Plant response rating, Beggarticks
# Summary of the method: as §3
# kochia (Kochia scoparia) = experiment: Test F pre-/postemergence plant response; settings: Bassia scoparia, pre-emergence, scale 0 to 100, read-out: Plant response rating, Kochia
# Summary of the method: as §3
# [7] = system: lambsquarters (Chenopodium album); experiment: Test F pre-/postemergence plant response; settings: Chenopodium album, pre-emergence, scale 0 to 100, read-out: Plant response rating, Lambsquarters
# Summary of the method: as §3
# [8] = system: nightshade (eastern black nightshade, Solanum ptycanthum); experiment: Test F pre-/postemergence plant response; settings: Solanum, pre-emergence, scale 0 to 100, read-out: Plant response rating, Nightshade
# Summary of the method: as §3
# [9] = system: velvetleaf (Abutilon theophrasti); experiment: Test F pre-/postemergence plant response; settings: Abutilon theophrasti, pre-emergence, scale 0 to 100, read-out: Plant response rating, Velvetleaf
# Summary of the method: as §3
# [10] = system: yellow nutsedge (Cyperus esculentus); experiment: Test F pre-/postemergence plant response; settings: Cyperus, pre-emergence, scale 0 to 100, read-out: Plant response rating, Nutsedge, Yellow
# Summary of the method: as §3
# [11] = post-emergence, 8 g ai/ha Postemergence
# [12] = pre-emergence, 8 g ai/ha Preemergence
# [13] = post-emergence, 16 g ai/ha Postemergence
# [14] = post-emergence, 31 g ai/ha Postemergence
# [15] = post-emergence, 62 g ai/ha Postemergence
# [16] = post-emergence, 125 g ai/ha Postemergence
# [17] = pre-emergence, 16 g ai/ha Preemergence
# [18] = pre-emergence, 31 g ai/ha Preemergence
# [19] = pre-emergence, 62 g ai/ha Preemergence
# [20] = pre-emergence, 125 g ai/ha Preemergence
smiles,measurement,setting,value
"FC(F)(F)c1cc(-c2ccccc2Oc2ncc(Cl)cn2)no1 [Compound 200, 5-chloro-2-[2-[5-(trifluoromethyl)-3-isoxazolyl]phenoxy]pyrimidine]",pest or weed control at 16 g/ha,"[1]; post-emergence, Postemergence",5%
same,pest or weed control at 31 g/ha,"[1]; post-emergence, Postemergence",10%
same,pest or weed control at 62 g/ha,"[1]; post-emergence, Postemergence",25%
same,pest or weed control at 125 g/ha,"[1]; post-emergence, Postemergence",40%
same,pest or weed control at 16 g/ha,"[1]; pre-emergence, Preemergence",0%
same,pest or weed control at 31 g/ha,"[1]; pre-emergence, Preemergence",25%
same,pest or weed control at 62 g/ha,"[1]; pre-emergence, Preemergence",30%
same,pest or weed control at 125 g/ha,"[1]; pre-emergence, Preemergence",85%
same,pest or weed control at 16 g/ha,"[2]; post-emergence, 16 g ai/ha, Postemergence",25%
same,pest or weed control at 31 g/ha,"[2]; post-emergence, Postemergence",35%
same,pest or weed control at 62 g/ha,"[2]; post-emergence, Postemergence",45%
same,pest or weed control at 125 g/ha,"[2]; post-emergence, Postemergence",55%
same,pest or weed control at 31 g/ha,"[2]; pre-emergence, Preemergence",25%
same,pest or weed control at 62 g/ha,"[2]; pre-emergence, Preemergence",100%
same,pest or weed control at 125 g/ha,"[2]; pre-emergence, Preemergence",100%
same,pest or weed control at 8 g/ha,[3]; [11],0%
same,pest or weed control at 16 g/ha,"[3]; post-emergence, Postemergence",0%
same,pest or weed control at 31 g/ha,"[3]; post-emergence, Postemergence",0%
same,pest or weed control at 62 g/ha,"[3]; post-emergence, 62 g ai/ha, Postemergence",15%
same,pest or weed control at 125 g/ha,"[3]; post-emergence, Postemergence",20%
same,pest or weed control at 8 g/ha,[3]; [12],0%
same,pest or weed control at 16 g/ha,"[3]; pre-emergence, Preemergence",0%
same,pest or weed control at 31 g/ha,"[3]; pre-emergence, Preemergence",0%
same,pest or weed control at 125 g/ha,"[3]; pre-emergence, Preemergence",40%
same,pest or weed control at 62 g/ha,"[3]; pre-emergence, Preemergence",20%
same,pest or weed control at 8 g/ha,[4]; [11],20%
same,pest or weed control at 16 g/ha,[4]; [13],20%
same,pest or weed control at 31 g/ha,[4]; [14],35%
same,pest or weed control at 62 g/ha,[4]; [15],35%
same,pest or weed control at 125 g/ha,[4]; [16],35%
same,pest or weed control at 8 g/ha,[4]; [12],0%
same,pest or weed control at 16 g/ha,[4]; [17],0%
same,pest or weed control at 31 g/ha,[4]; [18],30%
same,pest or weed control at 62 g/ha,[4]; [19],30%
same,pest or weed control at 125 g/ha,[4]; [20],30%
same,pest or weed control at 8 g/ha,[5]; 8 g ai/ha Preemergence,10%
same,pest or weed control at 16 g/ha,[5]; 16 g ai/ha Preemergence,70%
same,pest or weed control at 31 g/ha,[5]; 31 g ai/ha Preemergence,80%
same,pest or weed control at 125 g/ha,[5]; 125 g ai/ha Preemergence,98%
same,pest or weed control at 62 g/ha,[5]; Preemergence,95%
same,pest or weed control at 8 g/ha,[6]; [11],0%
same,pest or weed control at 16 g/ha,[6]; [13],0%
same,pest or weed control at 31 g/ha,[6]; [14],5%
same,pest or weed control at 62 g/ha,[6]; [15],10%
same,pest or weed control at 125 g/ha,[6]; [16],10%
same,pest or weed control at 8 g/ha,[6]; [12],0%
same,pest or weed control at 16 g/ha,[6]; [17],0%
same,pest or weed control at 31 g/ha,[6]; [18],0%
same,pest or weed control at 62 g/ha,[6]; [19],0%
same,pest or weed control at 125 g/ha,[6]; [20],0%
same,pest or weed control at 8 g/ha,kochia (Kochia scoparia); 8 g ai/ha Preemergence,20%
same,pest or weed control at 16 g/ha,"kochia (Kochia scoparia); 16 g ai/ha, Preemergence",25%
same,pest or weed control at 31 g/ha,"kochia (Kochia scoparia); 31 g ai/ha, Preemergence",50%
same,pest or weed control at 125 g/ha,"kochia (Kochia scoparia); 125 g ai/ha, Preemergence",100%
same,pest or weed control at 62 g/ha,kochia (Kochia scoparia); Preemergence,80%
same,pest or weed control at 8 g/ha,[7]; 8 g ai/ha Preemergence,0%
same,pest or weed control at 16 g/ha,"[7]; 16 g ai/ha, Preemergence",0%
same,pest or weed control at 31 g/ha,"[7]; 31 g ai/ha, Preemergence",98%
same,pest or weed control at 125 g/ha,"[7]; 125 g ai/ha, Preemergence",100%
same,pest or weed control at 62 g/ha,[7]; Preemergence,98%
same,pest or weed control at 8 g/ha,[8]; 8 g ai/ha Preemergence,0%
same,pest or weed control at 16 g/ha,[8]; 16 g ai/ha Preemergence,35%
same,pest or weed control at 31 g/ha,[8]; 31 g ai/ha Preemergence,60%
same,pest or weed control at 125 g/ha,[8]; 125 g ai/ha Preemergence,98%
same,pest or weed control at 62 g/ha,[8]; Preemergence,98%
same,pest or weed control at 8 g/ha,[9]; 8 g ai/ha Preemergence,0%
same,pest or weed control at 16 g/ha,[9]; 16 g ai/ha Preemergence,25%
same,pest or weed control at 31 g/ha,[9]; 31 g ai/ha Preemergence,80%
same,pest or weed control at 125 g/ha,[9]; 125 g ai/ha Preemergence,100%
same,pest or weed control at 62 g/ha,[9]; Preemergence,100%
same,pest or weed control at 8 g/ha,[10]; 8 g ai/ha Preemergence,0%
same,pest or weed control at 16 g/ha,[10]; 16 g ai/ha Preemergence,0%
same,pest or weed control at 31 g/ha,[10]; 31 g ai/ha Preemergence,0%
same,pest or weed control at 125 g/ha,[10]; 125 g ai/ha Preemergence,35%
same,pest or weed control at 62 g/ha,[10]; Preemergence,10%
